# Source: ChEMBL document CHEMBL5233266, “β-Carboline as a Privileged Scaffold for Multitarget Strategies in Alzheimer's Disease Therapy” (J Med Chem, 2021)
# pIC50, pKi: −log10 of the molar value.
# Tests used:
# [1] = molecular target: T1, Gamma-aminobutyric acid receptor subunit alpha-1 (Homo sapiens, UniProt P14867); test: Binding affinity to human recombinant GABAA alpha1 receptor assessed as inhibition constant incubated for 1 hrs by liquid scintillation counting analysis
# T1 sequence (P14867 whole entry): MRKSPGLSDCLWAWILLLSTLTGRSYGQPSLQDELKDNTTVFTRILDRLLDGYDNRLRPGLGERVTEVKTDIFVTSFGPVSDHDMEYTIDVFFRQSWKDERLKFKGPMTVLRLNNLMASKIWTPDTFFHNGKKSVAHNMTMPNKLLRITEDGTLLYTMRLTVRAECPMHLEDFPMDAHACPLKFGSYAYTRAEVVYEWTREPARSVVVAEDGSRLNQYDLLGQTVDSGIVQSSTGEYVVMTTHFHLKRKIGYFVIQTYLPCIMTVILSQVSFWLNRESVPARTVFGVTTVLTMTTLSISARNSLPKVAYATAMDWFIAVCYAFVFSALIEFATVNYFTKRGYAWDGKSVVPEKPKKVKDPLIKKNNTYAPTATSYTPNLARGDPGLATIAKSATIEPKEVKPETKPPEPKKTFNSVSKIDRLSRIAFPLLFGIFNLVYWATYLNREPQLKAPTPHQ
# [2] = molecular target: T2, Gamma-aminobutyric acid receptor subunit alpha-2 (Homo sapiens, UniProt P47869); test: Binding affinity to human recombinant GABAA alpha2 receptor assessed as inhibition constant incubated for 1 hrs by liquid scintillation counting analysis
# T2 sequence (P47869 whole entry): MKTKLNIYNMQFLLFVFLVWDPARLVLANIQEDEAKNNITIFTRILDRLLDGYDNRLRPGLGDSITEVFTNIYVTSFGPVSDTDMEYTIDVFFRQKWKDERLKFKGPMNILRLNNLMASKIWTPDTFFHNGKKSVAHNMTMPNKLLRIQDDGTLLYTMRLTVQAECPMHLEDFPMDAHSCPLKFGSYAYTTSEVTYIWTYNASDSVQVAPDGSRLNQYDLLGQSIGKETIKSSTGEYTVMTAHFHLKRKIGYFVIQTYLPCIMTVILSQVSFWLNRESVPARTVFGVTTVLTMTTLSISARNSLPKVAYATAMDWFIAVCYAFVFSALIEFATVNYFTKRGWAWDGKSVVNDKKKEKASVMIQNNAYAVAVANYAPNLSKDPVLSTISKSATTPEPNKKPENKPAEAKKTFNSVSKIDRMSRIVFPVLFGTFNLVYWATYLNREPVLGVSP
# [3] = molecular target: T3, Gamma-aminobutyric acid receptor subunit alpha-3 (Homo sapiens, UniProt P34903); test: Binding affinity to human recombinant GABAA alpha3 receptor assessed as inhibition constant incubated for 1 hrs by liquid scintillation counting analysis
# T3 sequence (P34903 whole entry): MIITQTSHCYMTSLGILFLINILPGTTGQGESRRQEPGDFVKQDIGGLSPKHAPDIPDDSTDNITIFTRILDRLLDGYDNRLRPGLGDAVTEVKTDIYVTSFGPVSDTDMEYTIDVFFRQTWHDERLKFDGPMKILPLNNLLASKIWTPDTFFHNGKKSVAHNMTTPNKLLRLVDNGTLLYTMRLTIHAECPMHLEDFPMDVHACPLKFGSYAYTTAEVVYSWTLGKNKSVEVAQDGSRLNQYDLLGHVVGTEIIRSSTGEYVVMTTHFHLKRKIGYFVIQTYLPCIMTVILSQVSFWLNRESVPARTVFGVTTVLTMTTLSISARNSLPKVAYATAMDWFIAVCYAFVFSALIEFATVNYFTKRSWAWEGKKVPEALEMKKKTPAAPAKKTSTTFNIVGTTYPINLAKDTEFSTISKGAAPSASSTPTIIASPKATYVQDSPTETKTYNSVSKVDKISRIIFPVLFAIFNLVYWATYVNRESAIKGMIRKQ
# [4] = molecular target: T4, Gamma-aminobutyric acid receptor subunit alpha-5 (Homo sapiens, UniProt P31644); test: Binding affinity to human recombinant GABAA alpha5 receptor assessed as inhibition constant incubated for 1 hrs by liquid scintillation counting analysis
# T4 sequence (P31644 whole entry): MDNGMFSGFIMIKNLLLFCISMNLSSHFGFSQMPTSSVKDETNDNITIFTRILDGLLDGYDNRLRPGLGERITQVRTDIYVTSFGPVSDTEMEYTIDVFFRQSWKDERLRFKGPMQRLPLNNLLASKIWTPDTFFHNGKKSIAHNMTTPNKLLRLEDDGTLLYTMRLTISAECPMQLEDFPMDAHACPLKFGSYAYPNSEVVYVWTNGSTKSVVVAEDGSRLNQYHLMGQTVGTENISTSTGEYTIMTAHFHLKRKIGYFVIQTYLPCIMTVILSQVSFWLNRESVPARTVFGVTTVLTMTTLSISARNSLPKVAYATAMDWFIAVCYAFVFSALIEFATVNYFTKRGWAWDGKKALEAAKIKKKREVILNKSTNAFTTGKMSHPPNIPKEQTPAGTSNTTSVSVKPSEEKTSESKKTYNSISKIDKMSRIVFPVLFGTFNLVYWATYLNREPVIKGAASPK
# [5] = molecular target: T5, Gamma-aminobutyric acid receptor subunit alpha-6 (Homo sapiens, UniProt Q16445); test: Binding affinity to human recombinant GABAA alpha6 receptor assessed as inhibition constant incubated for 1 hrs by liquid scintillation counting analysis
# [6] = molecular target: T1, Gamma-aminobutyric acid receptor subunit alpha-1; test: Inhibition of GABAA alpha1 receptor (unknown origin)
# [7] = molecular target: T2, Gamma-aminobutyric acid receptor subunit alpha-2; test: Inhibition of GABAA alpha2 receptor (unknown origin)
# [8] = molecular target: T3, Gamma-aminobutyric acid receptor subunit alpha-3; test: Inhibition of GABAA alpha3 receptor (unknown origin)
# [9] = molecular target: T4, Gamma-aminobutyric acid receptor subunit alpha-5; test: Inhibition of GABAA alpha5 receptor (unknown origin)
# [10] = molecular target: T5, Gamma-aminobutyric acid receptor subunit alpha-6; test: Binding affinity to GABAA alpha6 receptor (unknown origin) assessed as inhibition constant
# Acetylcholinesterase = Acetylcholinesterase (Homo sapiens, UniProt P22303); test: Inhibition of AChE (unknown origin)
# [11] = molecular target: cGMP-specific 3',5'-cyclic phosphodiesterase (Homo sapiens, UniProt O76074); test: Inhibition of PDE5 (unknown origin)
# [12] = Aqueous solubility of compound; type: physicochemical; conditions: water
# Beta-secretase 1 = Beta-secretase 1 (Homo sapiens, UniProt P56817); test: Inhibition of BACE1 (unknown origin) expressed in HEK293 cells by FRET assay; type: cell-based
# [13] = molecular target: 5-hydroxytryptamine receptor 2A (Rattus norvegicus, UniProt P14842); test: Displacement of [3H]-ketanserin from rat 5-HT2A expressed in mouse NIH/3T3 cells assessed as inhibition constant by Cheng-Prusoff equation analysis; type: cell-based
# [14] = molecular target: 5-hydroxytryptamine receptor 2C (Rattus norvegicus, UniProt P08909); test: Displacement of [3H]-ketanserin from rat 5-HT2C expressed in mouse NIH/3T3 cells assessed as inhibition constant by Cheng-Prusoff equation analysis; type: cell-based
# [15] = molecular target: 5-hydroxytryptamine receptor 2B (Rattus norvegicus, UniProt P30994); test: Displacement of [3H]-ketanserin from rat 5-HT2B expressed in mouse NIH/3T3 cells assessed as inhibition constant by Cheng-Prusoff equation analysis; type: cell-based
# [16] = molecular target: 5-hydroxytryptamine receptor 2B (Homo sapiens, UniProt P41595); test: Binding affinity to 5-HT2B (unknown origin) assessed as equilibrium binding constant
# Histone deacetylase 1 = Histone deacetylase 1 (Homo sapiens, UniProt Q13547); test: Inhibition of HDAC1 (unknown origin)
# Histone deacetylase 2 = Histone deacetylase 2 (Homo sapiens, UniProt Q92769); test: Inhibition of HDAC2 (unknown origin)
# [17] = molecular target: T6, Protein deacetylase HDAC6 (Homo sapiens, UniProt Q9UBN7); test: Inhibition of HDAC6 (unknown origin)
# T6 sequence (Q9UBN7 whole entry): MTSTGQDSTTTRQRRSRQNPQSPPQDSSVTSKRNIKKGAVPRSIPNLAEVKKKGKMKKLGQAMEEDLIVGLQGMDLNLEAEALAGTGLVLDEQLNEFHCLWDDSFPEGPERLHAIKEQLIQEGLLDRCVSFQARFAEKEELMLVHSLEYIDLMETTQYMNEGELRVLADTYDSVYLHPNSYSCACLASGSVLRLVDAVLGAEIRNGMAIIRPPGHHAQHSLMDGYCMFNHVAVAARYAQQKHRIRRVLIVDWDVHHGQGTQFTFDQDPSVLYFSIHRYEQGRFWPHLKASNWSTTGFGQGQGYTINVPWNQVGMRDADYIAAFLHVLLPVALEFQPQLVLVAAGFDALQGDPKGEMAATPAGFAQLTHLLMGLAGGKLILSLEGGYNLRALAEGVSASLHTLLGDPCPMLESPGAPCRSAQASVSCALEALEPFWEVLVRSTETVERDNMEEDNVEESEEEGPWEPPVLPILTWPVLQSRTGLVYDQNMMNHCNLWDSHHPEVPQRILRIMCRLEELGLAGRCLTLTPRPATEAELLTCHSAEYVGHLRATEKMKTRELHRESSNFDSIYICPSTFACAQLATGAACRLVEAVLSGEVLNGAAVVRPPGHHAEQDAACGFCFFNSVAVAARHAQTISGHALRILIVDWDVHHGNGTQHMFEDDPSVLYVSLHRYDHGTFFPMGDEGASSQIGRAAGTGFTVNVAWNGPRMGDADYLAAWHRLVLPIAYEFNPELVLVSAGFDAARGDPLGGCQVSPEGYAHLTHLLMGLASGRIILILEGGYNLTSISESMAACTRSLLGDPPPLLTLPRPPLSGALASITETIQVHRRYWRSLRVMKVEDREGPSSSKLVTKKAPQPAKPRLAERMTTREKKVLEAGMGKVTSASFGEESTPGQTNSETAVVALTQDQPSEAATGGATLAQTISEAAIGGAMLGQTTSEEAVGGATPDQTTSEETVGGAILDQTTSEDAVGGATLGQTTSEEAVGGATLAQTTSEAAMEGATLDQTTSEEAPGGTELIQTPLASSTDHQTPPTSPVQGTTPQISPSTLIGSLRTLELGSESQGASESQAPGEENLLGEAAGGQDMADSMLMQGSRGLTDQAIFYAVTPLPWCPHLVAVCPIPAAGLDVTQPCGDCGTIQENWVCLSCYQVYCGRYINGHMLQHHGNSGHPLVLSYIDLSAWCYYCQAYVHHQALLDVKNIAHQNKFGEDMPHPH
# [18] = molecular target: GABA-A receptor; anion channel; test: Displacement of [3H]flunitrazepam from GABAA (unknown origin ) receptor by radioligand binding assay; type: protein-complex assay, Homo sapiens
# [19] = molecular target: 5-hydroxytryptamine receptor 1A (Homo sapiens, UniProt P08908); test: Displacement of […] from human 5-HT1A expressed in human HEK cells assessed as inhibition constant by FLIPR assay; type: cell-based
# [20] = molecular target: 5-hydroxytryptamine receptor 2A (Homo sapiens, UniProt P28223); test: Displacement of [3H]-LSD from human 5-HT2A expressed in human HEK cells assessed as inhibition constant by FLIPR assay; type: cell-based
# [21] = molecular target: T7, 5-hydroxytryptamine receptor 3A (Homo sapiens, UniProt P46098); test: Binding affinity to 5-HT3R (unknown origin) assessed as inhibition constant
# T7 sequence (P46098 whole entry): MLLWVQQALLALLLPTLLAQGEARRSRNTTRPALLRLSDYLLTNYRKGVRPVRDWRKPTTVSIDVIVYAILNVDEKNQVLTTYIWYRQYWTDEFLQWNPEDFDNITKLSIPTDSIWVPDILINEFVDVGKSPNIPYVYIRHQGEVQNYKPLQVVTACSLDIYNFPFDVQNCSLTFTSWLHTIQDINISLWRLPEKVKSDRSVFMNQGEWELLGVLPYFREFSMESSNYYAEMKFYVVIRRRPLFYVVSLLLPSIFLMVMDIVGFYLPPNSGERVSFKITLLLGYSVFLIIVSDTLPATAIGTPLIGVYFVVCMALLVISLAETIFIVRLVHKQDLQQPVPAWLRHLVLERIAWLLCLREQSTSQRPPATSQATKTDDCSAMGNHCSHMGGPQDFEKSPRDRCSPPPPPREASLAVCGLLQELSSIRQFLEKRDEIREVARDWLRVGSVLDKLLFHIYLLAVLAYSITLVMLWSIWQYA
# Cholinesterase = Cholinesterase (Homo sapiens, UniProt P06276); test: Inhibition of BuChE (unknown origin) assessed as inhibition of A-beta aggregation at 100 uM relative to control
# T5 sequence (Q16445 whole entry): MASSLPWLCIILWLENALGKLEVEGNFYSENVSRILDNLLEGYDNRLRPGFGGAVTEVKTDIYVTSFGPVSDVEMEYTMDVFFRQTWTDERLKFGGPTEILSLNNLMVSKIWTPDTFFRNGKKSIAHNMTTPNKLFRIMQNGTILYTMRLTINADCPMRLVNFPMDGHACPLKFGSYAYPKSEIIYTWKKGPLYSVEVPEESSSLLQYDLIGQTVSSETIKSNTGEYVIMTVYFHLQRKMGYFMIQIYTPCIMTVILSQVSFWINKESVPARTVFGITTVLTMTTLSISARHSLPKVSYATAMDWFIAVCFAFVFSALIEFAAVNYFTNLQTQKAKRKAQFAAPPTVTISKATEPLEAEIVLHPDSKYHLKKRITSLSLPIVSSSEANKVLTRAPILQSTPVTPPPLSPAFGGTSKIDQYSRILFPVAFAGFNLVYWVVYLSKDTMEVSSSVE
# 5-hydroxytryptamine receptor 2C, sequence (P08909 whole entry): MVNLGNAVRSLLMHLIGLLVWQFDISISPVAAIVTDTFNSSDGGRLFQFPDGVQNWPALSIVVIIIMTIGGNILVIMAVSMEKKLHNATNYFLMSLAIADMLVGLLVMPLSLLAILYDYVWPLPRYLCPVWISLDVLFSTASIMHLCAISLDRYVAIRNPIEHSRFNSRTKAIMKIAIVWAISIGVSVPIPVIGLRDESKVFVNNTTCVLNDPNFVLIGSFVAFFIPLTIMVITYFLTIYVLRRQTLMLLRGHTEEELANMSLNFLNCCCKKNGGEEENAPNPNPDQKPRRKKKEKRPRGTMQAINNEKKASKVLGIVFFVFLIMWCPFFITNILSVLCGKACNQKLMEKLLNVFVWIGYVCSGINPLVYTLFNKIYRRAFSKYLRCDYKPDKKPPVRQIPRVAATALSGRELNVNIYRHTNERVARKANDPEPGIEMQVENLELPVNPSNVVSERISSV
# 5-hydroxytryptamine receptor 2B (Homo sapiens, UniProt P41595), sequence (P41595 whole entry): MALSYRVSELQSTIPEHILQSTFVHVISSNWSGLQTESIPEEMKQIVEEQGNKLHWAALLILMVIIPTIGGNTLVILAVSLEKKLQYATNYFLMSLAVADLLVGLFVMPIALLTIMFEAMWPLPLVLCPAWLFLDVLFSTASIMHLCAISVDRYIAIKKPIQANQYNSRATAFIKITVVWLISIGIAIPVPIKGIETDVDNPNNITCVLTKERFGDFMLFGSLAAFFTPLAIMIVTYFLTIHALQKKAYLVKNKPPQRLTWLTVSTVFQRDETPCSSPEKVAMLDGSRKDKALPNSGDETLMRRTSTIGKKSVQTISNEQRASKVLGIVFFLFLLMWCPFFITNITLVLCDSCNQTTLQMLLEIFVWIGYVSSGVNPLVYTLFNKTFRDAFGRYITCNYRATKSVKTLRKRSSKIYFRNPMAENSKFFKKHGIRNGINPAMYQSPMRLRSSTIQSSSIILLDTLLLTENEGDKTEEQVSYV
# Histone deacetylase 1, sequence (Q13547 whole entry): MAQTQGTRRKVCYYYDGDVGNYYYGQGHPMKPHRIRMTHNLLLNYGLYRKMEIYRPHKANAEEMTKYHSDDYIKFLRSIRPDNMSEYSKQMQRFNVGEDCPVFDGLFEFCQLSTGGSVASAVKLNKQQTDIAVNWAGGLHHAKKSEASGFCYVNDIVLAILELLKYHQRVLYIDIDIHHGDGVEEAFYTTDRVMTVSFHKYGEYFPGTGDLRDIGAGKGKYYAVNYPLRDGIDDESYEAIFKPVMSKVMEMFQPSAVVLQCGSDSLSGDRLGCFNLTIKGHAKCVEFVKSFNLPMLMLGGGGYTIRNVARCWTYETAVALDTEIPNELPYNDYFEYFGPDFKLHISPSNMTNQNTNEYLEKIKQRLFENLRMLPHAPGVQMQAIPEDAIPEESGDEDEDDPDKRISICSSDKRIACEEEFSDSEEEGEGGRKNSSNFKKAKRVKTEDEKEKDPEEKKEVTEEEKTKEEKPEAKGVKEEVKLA
# Histone deacetylase 2, sequence (Q92769 whole entry): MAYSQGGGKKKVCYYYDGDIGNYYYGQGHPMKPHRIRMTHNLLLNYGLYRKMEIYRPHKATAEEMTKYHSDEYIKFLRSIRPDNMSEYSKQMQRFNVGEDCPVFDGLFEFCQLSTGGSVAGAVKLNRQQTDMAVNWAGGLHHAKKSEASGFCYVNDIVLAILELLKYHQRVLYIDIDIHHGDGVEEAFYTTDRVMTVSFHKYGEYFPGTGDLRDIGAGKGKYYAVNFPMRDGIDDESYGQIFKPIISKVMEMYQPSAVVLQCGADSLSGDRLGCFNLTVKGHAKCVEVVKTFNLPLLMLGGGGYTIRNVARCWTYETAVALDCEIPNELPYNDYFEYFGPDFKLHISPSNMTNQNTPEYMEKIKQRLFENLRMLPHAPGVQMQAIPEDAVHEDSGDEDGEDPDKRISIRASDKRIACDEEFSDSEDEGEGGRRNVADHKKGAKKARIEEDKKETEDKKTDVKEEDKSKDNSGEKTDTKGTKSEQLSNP
# Acetylcholinesterase, sequence (P22303 whole entry): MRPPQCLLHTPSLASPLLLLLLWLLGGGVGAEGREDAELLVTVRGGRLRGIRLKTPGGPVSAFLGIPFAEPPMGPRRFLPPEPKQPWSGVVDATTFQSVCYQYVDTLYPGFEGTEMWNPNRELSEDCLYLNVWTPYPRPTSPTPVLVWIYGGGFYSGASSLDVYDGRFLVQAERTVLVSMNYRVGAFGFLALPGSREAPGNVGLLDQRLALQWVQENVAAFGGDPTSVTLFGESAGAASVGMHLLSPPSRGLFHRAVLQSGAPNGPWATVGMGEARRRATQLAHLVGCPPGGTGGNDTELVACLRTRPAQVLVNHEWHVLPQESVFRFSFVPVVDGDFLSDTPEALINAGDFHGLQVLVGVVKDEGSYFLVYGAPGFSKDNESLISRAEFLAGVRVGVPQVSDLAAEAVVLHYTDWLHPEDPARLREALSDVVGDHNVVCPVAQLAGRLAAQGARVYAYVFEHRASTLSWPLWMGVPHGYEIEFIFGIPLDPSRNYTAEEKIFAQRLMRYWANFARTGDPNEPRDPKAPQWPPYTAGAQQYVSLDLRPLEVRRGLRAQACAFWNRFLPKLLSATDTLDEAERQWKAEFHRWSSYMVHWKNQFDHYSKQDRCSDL
# 5-hydroxytryptamine receptor 2A (Rattus norvegicus, UniProt P14842), sequence (P14842 whole entry): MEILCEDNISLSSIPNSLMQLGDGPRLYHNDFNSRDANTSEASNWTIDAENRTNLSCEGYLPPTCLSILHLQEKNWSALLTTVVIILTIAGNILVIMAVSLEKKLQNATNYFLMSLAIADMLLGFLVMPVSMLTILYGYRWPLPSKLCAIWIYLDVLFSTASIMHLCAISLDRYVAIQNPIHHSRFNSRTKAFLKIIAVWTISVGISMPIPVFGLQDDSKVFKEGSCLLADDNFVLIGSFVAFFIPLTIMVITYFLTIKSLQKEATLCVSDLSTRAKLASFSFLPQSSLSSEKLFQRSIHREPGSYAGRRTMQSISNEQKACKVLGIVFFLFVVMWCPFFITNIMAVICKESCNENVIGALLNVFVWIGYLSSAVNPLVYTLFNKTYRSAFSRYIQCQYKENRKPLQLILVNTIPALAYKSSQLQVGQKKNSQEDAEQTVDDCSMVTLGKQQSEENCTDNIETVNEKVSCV
# 5-hydroxytryptamine receptor 1A, sequence (P08908 whole entry): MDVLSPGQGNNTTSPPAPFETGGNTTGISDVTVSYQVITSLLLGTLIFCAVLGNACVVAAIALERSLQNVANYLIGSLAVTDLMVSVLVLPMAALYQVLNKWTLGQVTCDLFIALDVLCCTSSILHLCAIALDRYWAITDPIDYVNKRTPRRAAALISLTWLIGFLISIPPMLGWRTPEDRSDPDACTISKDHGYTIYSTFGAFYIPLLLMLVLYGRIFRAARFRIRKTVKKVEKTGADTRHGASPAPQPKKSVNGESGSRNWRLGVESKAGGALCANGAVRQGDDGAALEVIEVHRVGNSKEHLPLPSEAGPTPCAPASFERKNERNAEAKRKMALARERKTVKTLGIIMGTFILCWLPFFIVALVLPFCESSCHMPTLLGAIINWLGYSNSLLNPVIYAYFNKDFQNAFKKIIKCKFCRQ
# 5-hydroxytryptamine receptor 2A (Homo sapiens, UniProt P28223), sequence (P28223 whole entry): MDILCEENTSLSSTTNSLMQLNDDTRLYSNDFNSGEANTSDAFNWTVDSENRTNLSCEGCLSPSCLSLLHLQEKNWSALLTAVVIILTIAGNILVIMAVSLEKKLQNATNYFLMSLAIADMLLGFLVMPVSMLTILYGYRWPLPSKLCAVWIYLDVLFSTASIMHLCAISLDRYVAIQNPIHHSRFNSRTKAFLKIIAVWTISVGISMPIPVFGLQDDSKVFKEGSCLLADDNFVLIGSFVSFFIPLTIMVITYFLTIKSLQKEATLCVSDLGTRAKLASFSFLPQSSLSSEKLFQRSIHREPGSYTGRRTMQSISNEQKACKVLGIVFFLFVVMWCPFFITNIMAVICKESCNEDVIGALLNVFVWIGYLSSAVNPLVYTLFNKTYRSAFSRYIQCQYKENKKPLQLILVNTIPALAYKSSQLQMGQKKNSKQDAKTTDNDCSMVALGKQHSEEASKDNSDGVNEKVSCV
# 5-hydroxytryptamine receptor 2B (Rattus norvegicus, UniProt P30994), sequence (P30994 whole entry): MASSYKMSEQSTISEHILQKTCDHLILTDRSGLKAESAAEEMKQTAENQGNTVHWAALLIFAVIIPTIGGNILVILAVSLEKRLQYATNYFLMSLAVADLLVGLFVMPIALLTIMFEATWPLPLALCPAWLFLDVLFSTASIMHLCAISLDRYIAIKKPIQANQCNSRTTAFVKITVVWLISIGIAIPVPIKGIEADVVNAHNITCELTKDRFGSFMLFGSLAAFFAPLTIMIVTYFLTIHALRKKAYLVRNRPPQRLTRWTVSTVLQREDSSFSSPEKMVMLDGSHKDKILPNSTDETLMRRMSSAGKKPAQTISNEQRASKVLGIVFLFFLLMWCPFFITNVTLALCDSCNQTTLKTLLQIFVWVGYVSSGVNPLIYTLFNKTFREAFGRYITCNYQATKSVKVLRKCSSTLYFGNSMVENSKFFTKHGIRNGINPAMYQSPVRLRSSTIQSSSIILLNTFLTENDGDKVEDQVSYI
smiles,measurement,setting,value
c1ccc2c(c1)[nH]c1cnc3c4ccncc4[nH]c3c12,pKi,[1],8.52
same,pKi,[2],7.62
same,pKi,[3],7.51
same,pKi,[4],6.62
same,pKi,[5],< 5.00
same,pIC50,[6],8.52
same,pIC50,[7],7.62
same,pIC50,[8],7.51
same,pIC50,[9],6.62
same,pKi,[10],< 5.00
COc1ccc([C@@H]2c3[nH]c4ccccc4c3C[C@@H]3C(=O)N(CCC4CCN(Cc5ccccc5)CC4)CC(=O)N23)cc1,pIC50,Acetylcholinesterase,7.51
same,pIC50,[11],6.70
same,solubility,[12],1400 µg/mL
COc1ccc([C@@H]2c3[nH]c4ccccc4c3C[C@H]3C(=O)N(CCC4CCN(Cc5ccccc5)CC4)CC(=O)N23)cc1,pIC50,Acetylcholinesterase,7.82
same,pIC50,[11],5.49
same,solubility,[12],420 µg/mL
OC[C@@H]1Cc2c([nH]c3ccccc23)CN1Cc1cn(C[C@@H]2Cc3c([nH]c4ccccc34)CN2)nn1,pIC50,Beta-secretase 1,4.77
COc1ccc(CC2NCCc3c2[nH]c2c(C)c(C)ccc32)c(Br)c1OC (stereo not given),pKi,[13],8.05
same,pKi,[14],8.10
same,pKi,[15],10.10
same,Kb,[16],0.08 nM
O=C(CCCN1CCC(N2CC(=O)N3C(Cc4c([nH]c5ccccc45)C3c3ccc4c(c3)OCO4)C2=O)CC1)NO (stereo not given),pIC50,[11],6.85
same,pIC50,Histone deacetylase 1,< 5.60
same,pIC50,Histone deacetylase 2,< 5.60
same,pIC50,[17],< 5.60
c1ccc2c(c1)[nH]c1cnc3c4cccnc4[nH]c3c12,pKi,[1],8.70
same,pKi,[2],7.92
same,pKi,[3],7.80
same,pKi,[4],6.70
same,pKi,[5],< 5.00
same,pIC50,[6],8.70
same,pIC50,[7],7.92
same,pIC50,[8],7.80
same,pIC50,[9],6.70
same,pKi,[10],< 5.00
COc1ccc2c3c([nH]c2c1)C(C)NCC3 (stereo not given),pIC50,[18],< 4.00
same,pKi,[14],< 5.00
CC1=NCCc2c1[nH]c1ccccc21,pKi,[19],5.77
same,pKi,[20],6.00
same,pKi,[21],< 5.00
O=C(/C=C/c1ccc(N2CC(=O)N3C(Cc4c([nH]c5ccccc45)C3c3ccc4c(c3)OCO4)C2=O)cc1)NO (stereo not given),pIC50,[11],6.92
same,pIC50,Histone deacetylase 1,< 5.60
same,pIC50,Histone deacetylase 2,< 5.60
same,pIC50,[17],< 5.60
Cc1ccc2[nH]c3c4[n+](ccc3c2c1)-c1ccccc1C4=O,inhibition,Cholinesterase,38%
